Laboratory results reported in patent US20250235460A1, “COMBINATION THERAPY USING GLUCOSE-DEPENDENT INSULINOTROPIC POLYPEPTIDE RECEPTOR ANTAGONIST COMPOUNDS AND GLP-1 RECEPTOR AGONIST COMPOUNDS” (Pfizer Inc., priority 2024, published 2025).
Where a name gives a salt, the structure may show the parent alone.

Experiments:
human GLP-1R [1] = molecular target: human GLP-1R (Homo sapiens, UniProt P43220, G168S); assay: CHO GLP-1R Clone H6 cAMP HTRF agonist assay (Assay 1, high receptor density); format: cell-based; details: for EC50: geometric mean; for Emax: CHO GLP-1R clone H6, arithmetic mean, relative to saturating GLP-1 (1 μM), read-out: Assay 1 Emax (%)
human GLP-1R (Homo sapiens, UniProt P43220, G168S), sequence (P43220 24-463 G168S): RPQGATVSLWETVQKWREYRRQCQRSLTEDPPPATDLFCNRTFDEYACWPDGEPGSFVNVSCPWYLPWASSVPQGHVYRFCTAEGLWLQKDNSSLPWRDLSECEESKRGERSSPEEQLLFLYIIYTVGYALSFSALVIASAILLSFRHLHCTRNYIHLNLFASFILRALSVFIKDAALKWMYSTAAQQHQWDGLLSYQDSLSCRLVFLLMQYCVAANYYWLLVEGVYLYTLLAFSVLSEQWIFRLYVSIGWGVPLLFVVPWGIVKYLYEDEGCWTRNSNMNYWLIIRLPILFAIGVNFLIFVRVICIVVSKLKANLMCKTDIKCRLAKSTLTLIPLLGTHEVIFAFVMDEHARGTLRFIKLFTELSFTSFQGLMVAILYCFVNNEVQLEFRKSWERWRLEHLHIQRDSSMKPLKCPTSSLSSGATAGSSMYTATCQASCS
In short: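 Two significant figures are used throughout. Each EC50 is the geometric mean of its replicates, and each Emax is the arithmetic mean.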

human GLP-1R [2] = molecular target: human GLP-1R (Homo sapiens, UniProt P43220, L260F); assay: CHO GLP-1R Clone C6 cAMP HTRF agonist assay (Assay 2, low receptor density); format: cell-based; details: for EC50: geometric mean; for Emax: CHO GLP-1R clone C6, arithmetic mean, relative to saturating GLP-1 (1 μM)
human GLP-1R (Homo sapiens, UniProt P43220, L260F), sequence (P43220 24-463 L260F): as the sequence (P43220 24-463 G168S) above, with S145G, L237F counted along it
From the text: In Table 5 and Table 6, assay data are presented to two (2) significant figures as the geometric mean (EC50s) and arithmetic mean (Emax) based on the number of replicates listed (Number). A blank cell means there was no data for that Example or the Emax was not calculated.

| SMILES | EC50 (human GLP-1R [1]; CHO GLP-1R clone, cAMP HTRF) [nM] | EC50 (human GLP-1R [2]; CHO GLP-1R clone, low receptor density, cAMP HTRF) [nM] | EC50 (human GLP-1R [1]; CHO GLP-1R clone H6, cAMP HTRF) [nM] | Emax (human GLP-1R [1]) [%] | EC50 (human GLP-1R [2]; CHO GLP-1R clone C6, cAMP HTRF) [nM] | Emax (human GLP-1R [2]) [%] |
| --- | --- | --- | --- | --- | --- | --- |
| COCCn1c(C2CC23CCC(c2cccc4c2OC(C)(c2ccc(Cl)cc2F)O4)CC3)nc2ccc(C(=O)O)cc21 (stereo not shown) [Compound 29B, 2-{6-[2-(4-chloro-2-fluorophenyl)-2-methyl-1,3-benzodioxol-4-yl]-6-azaspiro[2.5]oct-1-yl}-1-(2-methoxyethyl)-1H-benzimidazole-6-carboxylic acid, DIAST-Z2, trifluoroacetate salt] | > 20000 | > 20000 |  |  |  |  |
| O=C(O)c1ccc2nc(CN3CCC(c4cccc(OCc5ccc(Cl)cc5F)n4)CC3)n(C[C@@H]3CCO3)c2c1 [Compound 107B, 2-[(4-{6-[(4-chloro-2-fluorobenzyl)oxy]pyridin-2-yl}piperidin-1-yl)methyl]-1-[(2S)-oxetan-2-ylmethyl]-1H-benzimidazole-6-carboxylic acid] |  |  | 81 | 77 | 910 | 94 |
| N#Cc1ccc(COc2cccc(N3CCN(Cc4nc5ccc(C(=O)O)cc5n4C[C@@H]4CCO4)CC3)n2)c(F)c1 [Compound 108B, 2-[(4-{6-[(4-cyano-2-fluorobenzyl)oxy]pyridin-2-yl}piperazin-1-yl)methyl]-1-[(2S)-oxetan-2-ylmethyl]-1H-benzimidazole-6-carboxylic acid] |  |  | 16 | 85 | 320 | 88 |
| N#Cc1ccc(COc2cccc(C3CCN(Cc4nc5ccc(C(=O)O)cc5n4C[C@H]4CCO4)CC3)n2)c(F)c1 [Compound 111B, 2-[(4-{6-[(4-cyano-2-fluorobenzyl)oxy]pyridin-2-yl}piperidin-1-yl)methyl]-1-[(2R)-oxetan-2-ylmethyl]-1H-benzimidazole-6-carboxylic acid] |  |  |  | 75 |  | 67 |
| [2H]C([2H])(Oc1cccc(C2CCN(Cc3nc4ccc(C(=O)O)cc4n3C[C@@H]3CCO3)CC2)n1)c1ccc(C#N)cc1F [Compound 112B, 2-{[4-(6-{[(4-cyano-2-fluorophenyl)(methyl-d2)]oxy}pyridin-2-yl)piperidin-1-yl]methyl}-1-[(2S)-oxetan-2-ylmethyl]-1H-benzimidazole-6-carboxylic acid] |  |  |  | 84 |  | 70 |
| N#Cc1ccc(COc2nc(C3CCN(Cc4nc5ccc(C(=O)O)cc5n4C[C@@H]4CCO4)CC3)ccc2F)c(F)c1 [Compound 113B, 2-[(4-{6-[(4-cyano-2-fluorobenzyl)oxy]-5-fluoropyridin-2-yl}piperidin-1-yl)methyl]-1-[(2S)-oxetan-2-ylmethyl]-1H-benzimidazole-6-carboxylic acid] |  |  | 3.9 | 82 | 45 | 82 |
| N#Cc1ccc(COc2cccc(C3CCN(Cc4nc5ccc(C(=O)O)nc5n4C[C@@H]4CCO4)CC3)n2)c(F)c1 [Compound 114B, 2-[(4-{6-[(4-cyano-2-fluorobenzyl)oxy]pyridin-2-yl}piperidin-1-yl)methyl]-3-[(2S)-oxetan-2-ylmethyl]-3H-imidazo[4,5-b]pyridine-5-carboxylic acid] |  |  | 7.1 | 81 | 120 | 85 |
| C[C@H]1CN(c2cccc(OCc3ccc(C#N)cc3F)n2)CCN1Cc1nc2ccc(C(=O)O)cc2n1C[C@@H]1CCO1 [Compound 115B, 2-{[(2S)-4-{6-[(4-cyano-2-fluorobenzyl)oxy]pyridin-2-yl}-2-methylpiperazin-1-yl]methyl}-1-[(2S)-oxetan-2-ylmethyl]-1H-benzimidazole-6-carboxylic acid] |  |  | 0.95 | 92 | 17 | 120 |
| O=C(O)c1ccc2nc(CN3CCC(c4cccc(OCc5ccc(Cl)cc5F)n4)CC3)n(C[C@@H]3CCCO3)c2c1 [Compound 116B, 2-[(4-{6-[(4-chloro-2-fluorobenzyl)oxy]pyridin-2-yl}piperidin-1-yl)methyl]-1-[(2S)-tetrahydrofuran-2-ylmethyl]-1H-benzimidazole-6-carboxylic acid] |  |  | 930 | 86 | 9000 | 100 |
| O=C(O)c1ccc2nc(CN3CCC(c4cccc(OCc5ccc(F)cc5F)n4)CC3)n(C[C@@H]3CCO3)c2c1 [Compound 117B, 2-[(4-{6-[(2,4-difluorobenzyl)oxy]pyridin-2-yl}piperidin-1-yl)methyl]-1-[(2S)-oxetan-2-ylmethyl]-1H-benzimidazole-6-carboxylic acid] |  |  | 19 | 76 | 530 | 97 |
| O=C(O)c1ccc2nc(CN3CCN(c4cccc(OCc5ccc(Cl)cc5F)n4)CC3)n(C[C@@H]3CCO3)c2n1 [Compound 120B, 2-[(4-{6-[(4-chloro-2-fluorobenzyl)oxy]pyridin-2-yl}piperazin-1-yl)methyl]-3-[(2S)-oxetan-2-ylmethyl]-3H-imidazo[4,5-b]pyridine-5-carboxylic acid] |  |  | 47 | 71 | 1600 | 81 |
| O=C(O)c1ccc2nc(CN3CCC(c4cccc(OCc5ccc(Cl)cc5F)n4)CC3)n(C[C@@H]3CCO3)c2n1 [Compound 122B, 2-[(4-{6-[(4-chloro-2-fluorobenzyl)oxy]pyridin-2-yl}piperidin-1-yl)methyl]-3-[(2S)-oxetan-2-ylmethyl]-3H-imidazo[4,5-b]pyridine-5-carboxylic acid] |  |  | 1.5 | 86 | 14 | 82 |
| N#Cc1ccc(COc2cccc(N3CCN(Cc4nc5ccc(C(=O)O)nc5n4C[C@@H]4CCO4)CC3)n2)c(F)c1 [Compound 123B, 2-[(4-{6-[(4-cyano-2-fluorobenzyl)oxy]pyridin-2-yl}piperazin-1-yl)methyl]-3-[(2S)-oxetan-2-ylmethyl]-3H-imidazo[4,5-b]pyridine-5-carboxylic acid] |  |  | 2.4 | 87 | 45 | 95 |
| N#Cc1ccc(COc2cccc(C3CCN(Cc4nc5ccc(C(=O)O)cc5n4C[C@@H]4CCCO4)CC3)n2)c(F)c1 [Compound 124B, 2-[(4-{6-[(4-cyano-2-fluorobenzyl)oxy]pyridin-2-yl}piperidin-1-yl)methyl]-1-[(2S)-tetrahydrofuran-2-ylmethyl]-1H-benzimidazole-6-carboxylic acid] |  |  | 6.4 | 90 | 110 | 94 |
| N#Cc1ccc(COc2nc(C3CCN(Cc4nc5ccc(C(=O)O)cc5n4C[C@@H]4CCO4)CC3)ccc2F)cc1 [Compound 127B, 2-[(4-{6-[(4-cyanobenzyl)oxy]-5-fluoropyridin-2-yl}piperidin-1-yl)methyl]-1-[(2S)-oxetan-2-ylmethyl]-1H-benzimidazole-6-carboxylic acid] |  |  | 4.9 | 77 | 75 | 83 |
| N#Cc1ccc(COc2cccc(C3CCN(Cc4nc5ccc(C(=O)O)cc5n4C[C@@H]4CCCO4)CC3)n2)cc1 [Compound 131B, 2-[(4-{6-[(4-cyanobenzyl)oxy]pyridin-2-yl}piperidin-1-yl)methyl]-1-[(2S)-tetrahydrofuran-2-ylmethyl]-1H-benzimidazole-6-carboxylic acid] |  |  | 45 | 65 | 1000 | 84 |
